Measured values taken from patent US20220273659A1, “HETEROCYCLIC COMPOUNDS AS KINASE INHIBITORS” (NUVATION BIO INC., priority 2019, published 2022).
pIC50: −log10 of the molar value.

What was measured:
[1] = target: T1, FMS kinase (Homo sapiens, UniProt P07333); test: LanthaScreen Eu Kinase Binding Assay (ATP, fluorescent-PolyGT substrate); assay type: biochemical
T1 construct: purchased Invitrogen (Life Technologies)
Description: IC50 values of compounds against FMS kinase were determined by LanthaScreen™ Eu Kinase Binding Assay at Invitrogen (Life Technologies Grand Island, N.Y.) where total reaction volume was 10 μL in low-volume 384-well plates (#4511, Corning). Serially diluted compounds (3-fold) were incubated with kinase (1.25 nM) for 10 min, following which a mixture of ATP (10 μM) (#A1852, Sigma, St-Louis, Mo.) and fluorescent-PolyGT substrate (200 nM) (#PV3610, Invitrogen, Life Technologies Grand Island, N.Y.) was added and incubated in dark at room temperature for 1H. After 1H, 10 μL stop solution containing Terbium labeled antibody (4 nM) (#PV3529, Invitrogen, Life Technologies Grand Island, N.Y.) and EDTA (#E5134, Sigma, St-Louis, Mo.) (20 mM) in TR-FRET dilution buffer (#PV3574, Invitrogen, Life Technologies Grand Island, N.Y.) was added. Readings were taken in a Synergy Neo Plate reader (BioTek, Winooski) at single excitation of 340 nm and Dual emission at 495 nm and 520 nm respectively.
The following equations were used for LanthaScreen Eu Kinase Binding Assay Data Analysis. Percent inhibition (100-% activity) was fitted to the “four-parameter logistic model” in XLfit for determination of IC50 values.

[2] = target: T2, PI3Kδ kinase (Homo sapiens, UniProt O00329); test: PI3Kδ kinase assay (ADP-Glo, Reaction Biology); assay type: biochemical
T2 construct: purchased Reaction Biology Corporation (assay service)
T2 sequence (O00329 whole entry): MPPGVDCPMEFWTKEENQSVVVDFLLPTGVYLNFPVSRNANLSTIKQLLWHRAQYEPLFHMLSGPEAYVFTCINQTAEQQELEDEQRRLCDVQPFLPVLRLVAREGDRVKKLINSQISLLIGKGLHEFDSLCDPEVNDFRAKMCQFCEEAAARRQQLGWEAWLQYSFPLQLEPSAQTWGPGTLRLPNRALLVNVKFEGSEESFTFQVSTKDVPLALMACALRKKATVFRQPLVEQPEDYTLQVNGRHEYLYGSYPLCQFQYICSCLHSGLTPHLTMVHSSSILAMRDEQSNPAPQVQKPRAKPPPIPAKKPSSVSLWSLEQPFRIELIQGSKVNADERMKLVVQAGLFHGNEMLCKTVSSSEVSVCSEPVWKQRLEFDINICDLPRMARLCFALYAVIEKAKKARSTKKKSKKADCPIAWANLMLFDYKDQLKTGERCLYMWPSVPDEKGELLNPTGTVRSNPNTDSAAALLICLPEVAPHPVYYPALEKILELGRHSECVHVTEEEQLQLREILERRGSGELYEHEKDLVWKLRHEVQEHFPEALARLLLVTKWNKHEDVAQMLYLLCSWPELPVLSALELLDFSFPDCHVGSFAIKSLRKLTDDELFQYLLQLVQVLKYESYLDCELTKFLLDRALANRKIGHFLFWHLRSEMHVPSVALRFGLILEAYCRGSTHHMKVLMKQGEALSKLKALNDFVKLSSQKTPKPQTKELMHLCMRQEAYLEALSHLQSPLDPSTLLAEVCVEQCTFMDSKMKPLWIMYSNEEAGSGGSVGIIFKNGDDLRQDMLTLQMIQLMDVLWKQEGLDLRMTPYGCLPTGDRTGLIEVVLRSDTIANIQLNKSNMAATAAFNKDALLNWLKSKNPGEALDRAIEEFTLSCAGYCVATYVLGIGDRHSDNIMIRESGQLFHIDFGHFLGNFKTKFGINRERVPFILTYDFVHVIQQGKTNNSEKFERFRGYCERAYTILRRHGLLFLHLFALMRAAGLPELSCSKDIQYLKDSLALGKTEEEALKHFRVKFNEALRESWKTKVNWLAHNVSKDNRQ
T2 sequence (P27986 whole entry partner): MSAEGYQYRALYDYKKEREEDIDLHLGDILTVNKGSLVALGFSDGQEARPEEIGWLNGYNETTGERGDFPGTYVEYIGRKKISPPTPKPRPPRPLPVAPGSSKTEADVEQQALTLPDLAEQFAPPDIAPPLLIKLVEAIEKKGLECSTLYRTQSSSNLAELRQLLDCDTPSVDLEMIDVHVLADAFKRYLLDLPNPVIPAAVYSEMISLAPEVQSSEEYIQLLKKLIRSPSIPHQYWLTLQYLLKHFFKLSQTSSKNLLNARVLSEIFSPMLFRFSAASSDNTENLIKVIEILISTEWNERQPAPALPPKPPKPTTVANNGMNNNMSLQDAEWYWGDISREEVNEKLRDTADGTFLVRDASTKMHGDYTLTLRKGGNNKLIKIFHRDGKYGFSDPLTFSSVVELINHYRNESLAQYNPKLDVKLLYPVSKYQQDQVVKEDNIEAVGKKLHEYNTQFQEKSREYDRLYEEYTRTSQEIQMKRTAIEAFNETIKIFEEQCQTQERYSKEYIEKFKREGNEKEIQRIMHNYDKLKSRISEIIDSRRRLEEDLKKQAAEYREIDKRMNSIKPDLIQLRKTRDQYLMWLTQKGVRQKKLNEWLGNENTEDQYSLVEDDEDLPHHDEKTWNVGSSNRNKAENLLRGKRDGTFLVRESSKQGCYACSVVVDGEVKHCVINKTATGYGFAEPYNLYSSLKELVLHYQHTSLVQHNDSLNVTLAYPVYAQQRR
Description: IC50 values of compounds against the PI3Kδ kinase were determined by an assay performed by Reaction Biology Corporation (Malvern, Pa.). Briefly, this assay was conducted in buffer (Tris-HCl 40 mM (pH7.5), Orthovanadate 3 mM, MgCl2 20 mM, DTT 2 mM, CHAPS 0.05%, DMSO 1%). PI3Kδ kinase was added to the reaction solution and mixed gently. The test compounds in 100% DMSO (at specific solutions) were mixed with the kinase reaction mixture to achieve the final compounds at pre-defined concentrations (e.g., range −0.5 nM to 100 μM) by Acoustic technology (Echo550; nanoliter range). After incubating for 10 min at room temp, ATP was added into the reaction mixture to initiate the reaction followed by a 30-min incubation at 30° C. After quenching the reaction with ADP-Glo reagent, the plates were incubated for 40 min. The Detection Mixture was added, and the plate was incubated for an additional 30 min. At the end of incubation, luminescence was measured. For data analysis, the luminescence was converted into μM ADP production based on ADP standard curves. The nonlinear regression to obtain the standard curve and IC50 values was performed using GraphPad Prism (GraphPad Software, Inc., San Diego, Calif.).

[3] = target: T3, CDK4 (Homo sapiens, UniProt P11802); test: In vitro kinase inhibition IC50, luminescence (ADP Glo), retinoblastoma substrate; assay type: biochemical; details: read-out: CDK4/D1 IC50
T3 construct: purchased Invitrogen PR8064A
T3 sequence (P11802 whole entry): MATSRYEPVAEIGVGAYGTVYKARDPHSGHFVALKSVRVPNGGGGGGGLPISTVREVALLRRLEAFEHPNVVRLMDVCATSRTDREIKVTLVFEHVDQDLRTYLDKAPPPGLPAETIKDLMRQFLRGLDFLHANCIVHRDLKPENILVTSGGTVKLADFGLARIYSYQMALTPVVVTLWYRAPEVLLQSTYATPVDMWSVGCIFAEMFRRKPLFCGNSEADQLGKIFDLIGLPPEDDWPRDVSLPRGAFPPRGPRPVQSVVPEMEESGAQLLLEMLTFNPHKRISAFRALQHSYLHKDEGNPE
T3 sequence (P24385 whole entry partner): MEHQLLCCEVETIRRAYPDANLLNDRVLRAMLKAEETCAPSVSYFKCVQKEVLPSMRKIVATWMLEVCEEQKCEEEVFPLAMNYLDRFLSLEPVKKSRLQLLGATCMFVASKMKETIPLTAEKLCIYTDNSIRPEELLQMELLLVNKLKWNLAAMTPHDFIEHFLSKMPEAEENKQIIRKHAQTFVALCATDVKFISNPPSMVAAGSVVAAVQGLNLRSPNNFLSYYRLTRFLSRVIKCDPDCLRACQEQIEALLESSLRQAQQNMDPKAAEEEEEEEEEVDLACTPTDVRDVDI
Description: (§1) IC50 values of compounds against CDK4 and CDK6 were determined by luminescence using retinoblastoma as substrate. Kinase assays were performed in kinase buffer (#PV6135, Invitrogen Life Technologies, Grand Island, N.Y.) where total reaction volume was […] in 96-well half area white plates (#3693, Costar). One microliter of 25×test compounds at specific concentrations (e.g., final concentration range: 0.1 nM-200 nM) was mixed with 10 μL of 2.5×kinase (5 nM, CDK4 #PR8064A and CDK6 #PR8422B, Invitrogen) solution and 14 μL of 4× mixed solution with retinoblastoma (1 μM, #12-439, EMD Millipore, Hayward, Calif.) and ATP (25 μM, #V7038, Promega, Madison, Wis.). The plates were covered and incubated for 2H at room temperature. At the end of incubation, 25 μL of stop solution—ADP Glo reagent (#V7002, Promega) was added. After incubation for 45 min at room temperature, 50 μL of detection reagent (##V7002, Promega) was added. Readings were taken at 15 min and 45 min incubation after detection reagent was added in a Synergy Neo Plate reader (BioTek, Winooski, Vt.) at single excitation of 340 nm and Dual emission at 495 nm and 520 nm respectively. The following equations were used in the CDK4 and CDK6 assay data analysis. Percent inhibition (100-% activity) was fitted to the “four-parameter logistic model” in XLfit for determination of IC50 values.
(§2) Percent conversion of enzyme=100−{(RLUNo Drug−No enzyme*100)/RLUNo drug+Enzyme} Equation 1:
(§3) Percent conversion at each data point=100−{(RLUAverage(Drug+enzyme)*100)!RLUNo drug+Enzyme} Equation 2:
(§4) Percent Inhibition=100*(% Conversioneach data point/% ConversionEnzyme) Equation 3: […]

[4] = target: T4, CDK6 (Homo sapiens, UniProt Q00534); test: as above; assay type: biochemical; details: read-out: CDK6/D1 IC50
T4 construct: purchased Invitrogen PR8422B
T4 sequence (Q00534 whole entry): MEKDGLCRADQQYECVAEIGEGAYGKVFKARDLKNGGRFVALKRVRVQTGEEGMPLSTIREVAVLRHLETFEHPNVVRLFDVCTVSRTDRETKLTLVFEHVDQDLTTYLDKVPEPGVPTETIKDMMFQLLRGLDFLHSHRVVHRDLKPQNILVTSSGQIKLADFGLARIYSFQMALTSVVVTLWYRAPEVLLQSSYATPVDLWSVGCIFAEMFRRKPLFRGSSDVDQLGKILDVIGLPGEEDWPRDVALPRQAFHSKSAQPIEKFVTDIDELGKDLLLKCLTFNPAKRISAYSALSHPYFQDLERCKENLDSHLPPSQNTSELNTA
T4 sequence (P24385 whole entry partner): as the sequence (P24385 whole entry partner) above
Description: as §1, §2, §3, §4

[5] = tested on: DU4475 breast carcinoma cells; test: Cancer cell proliferation assay, single agent (cell viability); assay type: cell-based; details: Homo sapiens, DU-4475; Table 4; Rb negative; treatment 144 Hr with medium change at 72 Hr; Cell Titer-Glo or resazurin
Description: (§5) The effects of test compounds were studied in three breast cancer cell lines of different subtype. The cancer cells (Table 3) were harvested during the logarithmic growth period and counted. Cell concentrations were adjusted to the appropriate number with respective medium and 90 μL cell suspensions were added to 96-well plates. After cells were seeded, the plates were shaken gently to distribute cells evenly and incubated at 37° C., 5% CO2 on day 1.
(§6) Cells were treated with test compounds at 7 to 9 concentrations within a desired concentration range (e.g. 1.1 nM-10 μM) on day 2 by series diluting the test compound stock solution (10 mM in DMSO) with culture medium. Treatment duration was 24 Hr for BT-549 cells and 144 Hr (with a medium change at 72 Hr) for MCF-7 and DU4475 cells. Cell viability was assessed by Cell Titer-Glo® as recommended by Promega (Cat. No.: G7572), or by resazurin assay (Sigma Aldrich, Cat. No.: R7017) post treatment.
(§7) Cell viability data were plotted using GraphPad Prism (GraphPad Software, Inc., San Diego, Calif.). In addition, a nonlinear regression model with a sigmoidal dose response and variable slope within GraphPad Prism was used to calculate the IC50 value of individual test compounds.

[6] = tested on: MCF-7 breast adenocarcinoma cells; test: as above; assay type: cell-based; details: Homo sapiens, MCF7, Table 4; Rb positive; treatment 144 Hr with medium change at 72 Hr; Cell Titer-Glo or resazurin
Description: as §5, §6, §7

T1 sequence (P07333 20-972): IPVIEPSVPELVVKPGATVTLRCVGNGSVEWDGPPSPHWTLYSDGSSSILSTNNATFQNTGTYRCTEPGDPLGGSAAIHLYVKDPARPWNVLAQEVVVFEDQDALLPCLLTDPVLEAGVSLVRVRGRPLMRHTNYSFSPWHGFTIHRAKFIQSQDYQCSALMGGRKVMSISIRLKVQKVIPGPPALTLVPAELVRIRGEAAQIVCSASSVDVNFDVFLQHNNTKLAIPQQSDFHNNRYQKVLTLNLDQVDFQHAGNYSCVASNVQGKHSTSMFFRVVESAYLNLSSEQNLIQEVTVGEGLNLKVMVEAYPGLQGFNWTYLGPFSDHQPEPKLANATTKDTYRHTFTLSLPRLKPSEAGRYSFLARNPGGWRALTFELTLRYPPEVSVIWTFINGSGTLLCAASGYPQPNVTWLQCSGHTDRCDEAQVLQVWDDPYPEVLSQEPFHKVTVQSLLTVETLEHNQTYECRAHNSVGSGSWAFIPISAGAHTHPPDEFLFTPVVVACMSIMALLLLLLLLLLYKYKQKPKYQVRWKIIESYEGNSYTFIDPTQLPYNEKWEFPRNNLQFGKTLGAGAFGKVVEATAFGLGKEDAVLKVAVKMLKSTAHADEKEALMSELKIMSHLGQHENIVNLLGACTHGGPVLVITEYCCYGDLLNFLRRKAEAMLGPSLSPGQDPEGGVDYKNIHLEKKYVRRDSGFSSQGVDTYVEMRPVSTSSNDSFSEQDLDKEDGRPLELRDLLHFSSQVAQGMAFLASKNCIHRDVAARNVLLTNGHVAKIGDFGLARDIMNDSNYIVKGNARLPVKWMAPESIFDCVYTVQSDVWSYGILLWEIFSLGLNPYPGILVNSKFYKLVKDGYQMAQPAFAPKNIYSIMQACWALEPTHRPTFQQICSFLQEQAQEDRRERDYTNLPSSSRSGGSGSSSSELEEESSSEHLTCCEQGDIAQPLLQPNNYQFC

Row | Structure (SMILES) | pIC50 [1] | pIC50 [2] | pIC50 [3] | pIC50 [4] | pIC50 [5] | pIC50 [6]
1 | CN1CCN(S(=O)(=O)c2ccc(Nc3ncc4cc(C#N)c(=O)n(C5CCCC5)c4n3)cc2)CC1 [Compound No. 15, 8-cyclopentyl-2-((4-((4-methylpiperazin-1-yl)sulfonyl)phenyl)amino)-7-oxo-7,8-dihydropyrido[2,3-d]pyrimidine-6-carbonitrile] | 8.26 | 5.43 |  |  |  | 
2 | CN(C)CCNC(=O)c1cccc(Nc2ncc3cc(C#N)c(=O)n(C4CCCC4)c3n2)c1 [Compound No. 11, 3-((6-cyano-8-cyclopentyl-7-oxo-7,8-dihydropyrido[2,3-d]pyrimidin-2-yl)amino)-N-(2-(dimethylamino)ethyl)benzamide] | 8.62 | 5.99 |  |  |  | 
3 | CCC(C)n1c(=O)c(C#N)cc2cnc(Nc3ccc4c(c3)CCNC4)nc21 (stereo not shown) [Compound No. 80, 8-(sec-butyl)-7-oxo-2-((1,2,3,4-tetrahydroisoquinolin-6-yl)amino)-7,8-dihydropyrido[2,3-d]pyrimidine-6-carbonitrile] |  | 6.53 | 6.89 | 7.66 | 6.06 | 6.30
4 | N#Cc1cc2cnc(Nc3ccc(S(=O)(=O)N4CCC(O)CC4)cc3)nc2n(C2CCCC2)c1=O [Compound No. 14, 8-cyclopentyl-2-((4-((4-hydroxypiperidin-1-yl)sulfonyl)phenyl)amino)-7-oxo-7,8-dihydropyrido[2,3-d]pyrimidine-6-carbonitrile] | 8.60 | 6.01 |  |  |  | 
5 | C[C@H]1CC[C@H](n2c(=O)c(C#N)cc3cnc(Nc4cccc(C(N)=O)c4)nc32)CC1 [Compound No. 4, 3-((6-cyano-8-((1r,4r)-4-methylcyclohexyl)-7-oxo-7,8-dihydropyrido[2,3-d]pyrimidin-2-yl)amino)benzamide] | 9.00 | 5.56 |  |  |  | 
6 | CN1CCN(c2ccc(Nc3ccc4cc(C#N)c(=O)n(C5CCCC5)c4n3)cc2)CC1 [Compound No. 96, 1-cyclopentyl-7-((4-(4-methylpiperazin-1-yl)phenyl)amino)-2-oxo-1,2-dihydro-1,8-naphthyridine-3-carbonitrile] |  | < 4.30 | < 6.70 | 6.81 | 5.77 | 5.61
7 | C[C@H]1CC[C@H](n2c(=O)c(C#N)cc3cnc(Nc4cccc(S(N)(=O)=O)c4)nc32)CC1 [Compound No. 2, 3-((6-cyano-8-((1r,4r)-4-methylcyclohexyl)-7-oxo-7,8-dihydropyrido[2,3-d]pyrimidin-2-yl)amino)benzenesulfonamide] | 6.74 | 6.89 |  |  |  | 
8 | N#Cc1cc2ccc(Nc3ccc4c(c3)CCNC4)nc2n(C2CCCC2)c1=O [Compound No. 97, 1-cyclopentyl-2-oxo-7-((1,2,3,4-tetrahydroisoquinolin-6-yl)amino)-1,2-dihydro-1,8-naphthyridine-3-carbonitrile] |  | < 4.30 | < 6.70 | < 6.70 | 5.90 | 5.79
9 | N#Cc1cc2cnc(Nc3ccc4c(c3)NC(=O)CC4)nc2n(C2CCCC2)c1=O [Compound No. 9, 8-cyclopentyl-7-oxo-2-((2-oxo-1,2,3,4-tetrahydroquinolin-7-yl)amino)-7,8-dihydropyrido[2,3-d]pyrimidine-6-carbonitrile] | > 9.00 | 6.02 |  |  |  | 
10 | CN1CCC(c2ccc(Nc3ccc4cc(C#N)c(=O)n(C5CCCC5)c4n3)cc2)CC1 [Compound No. 98, 1-cyclopentyl-7-((4-(1-methylpiperidin-4-yl)phenyl)amino)-2-oxo-1,2-dihydro-1,8-naphthyridine-3-carbonitrile] |  | < 4.30 | < 6.70 | < 6.70 | 5.84 | 5.76
11 | CCC(CC)n1c(=O)c(C#N)cc2cnc(Nc3ccc4c(c3)CCNC4)nc21 [Compound No. 86, 7-oxo-8-(pentan-3-yl)-2-((1,2,3,4-tetrahydroisoquinolin-6-yl)amino)-7,8-dihydropyrido[2,3-d]pyrimidine-6-carbonitrile] |  | 6.08 | 6.75 | 7.60 | 5.86 | 6.27
